The values that follow are results of earlier work, collected in patent US20220016082A1, “COMBINATION THERAPIES FOR HIGH AND VERY HIGH RISK MDS” (MEI Pharma, Inc., priority 2018, published 2022).

In data set [1] the test system is Higher-Risk Myelodysplastic Syndromes and Chronic Myelomonocytic Leukemia. As to conditions: arms N = 92 / 93 / 92; total N = 277.
In data set [2] the test system is MDS. As to conditions: N = 179.

Consider `Nc1ncn([C@@H]2O[C@H](CO)[C@@H](O)[C@H]2O)c(=O)n1` [AZA Monotherapy, 5-azacytidine], for which, in data set [1], the “CR (of CR/PR/HI)” value is given as 24%, the “HI (of CR/PR/HI)” value is given as 14%, the “Marrow CR” value is recorded as 12% and the “ORR = CR + PR + mCR” value is 38%. The “PR (of CR/PR/HI)” value in data set [1] was 0%. Besides, in data set [2], the “CR (of CR + PR)” value was 17%, the “CR + PR” value is listed as 29%, the HI was 49% and the “PR (of CR + PR)” value is reported as 12%.
